Source: patent US20250213499A1, “COMPOSITION FOR PREVENTING OR TREATING ISCHEMIC STROKE, CONTAINING SOBREROL AS ACTIVE INGREDIENT” (NEUROLMED CO., LTD, priority 2020, published 2025)

Tested on: focal cerebral ischemia induced by middle cerebral artery occlusion and reperfusion (MCAO/R)
Assay: Rodent cerebral ischemia model (MCAO/R): volume of cerebral infarction area by TTC staining
Type: in vivo, mice (C57/BL6)
Conditions: for cerebral infarction volume due to focal cerebral ischemia (FIG. 3): TTC-stained brain slices, ImageJ, *** p<0.001
Protocol: 12- to 13-week-old male mice (C57/BL6) were used in the experiment. The mice were divided into four groups of five each (three in the Sham group): Sham (surgical control group), stroke surgery group (Stroke), stroke+sobrerol-L (administration of 10 mg/kg of SOB-L), and stroke+sobrerol-H (administration of 40 mg/kg of SOB-H). According to the schematic view shown in FIG. 1, middle cerebral artery occlusion and reperfusion operation (MCAO/R) was performed to induce focal cerebral ischemia. After MCAO/R surgery, sobrerol was orally administered at concentrations of 10 mg/kg and 40 mg/kg. In the Sham and Stroke control groups, saline was orally administered. Neurological deficit tests were performed 22-23 hours after MCAO/R (n=5). After re-anesthesia, cardiac reperfusion in mice was carried out with PBS solution, and the brains were immediately removed and stained with 2% TTC (2,3,5-triphenyl-tetrazolium chloride) solution. TTC-stained slices were obtained from the mice in four groups, particularly Sham (surgical control group), stroke surgery group (Stroke), stroke+sobrerol-L (administration of 10 mg/kg of SOB-L), and stroke+sobrerol-H (administration of 40 mg/kg of SOB-H), and the volume of the cerebral infarction area was measured. Quantification was measured using ImageJ.

Compound: CC1=CCC(C(C)(C)O)CC1O (centres unmarked) [sobrerol, 5-(2-hydroxypropan-2-yl)-2-methylcyclohex-2-en-1-ol]
- cerebral infarction volume due to focal cerebral ischemia (FIG. 3) (10 mg/kg oral after MCAO/R (sobrerol-L)): significantly reduced
- damage status of ischemic brain tissue in TTC-stained slices (FIG. 2) (40 mg/kg oral (stroke+sobrerol-H) compared to sobrerol-L, Stroke and Sham groups, red area = undamaged, white = infarction): undamaged
- cerebral infarction volume due to focal cerebral ischemia (FIG. 3) (40 mg/kg oral after MCAO/R (sobrerol-H)): significantly reduced
- damage status of ischemic brain tissue in TTC-stained slices (FIG. 2) (group orally administered sobrerol compared to the other groups, dose not given): red undamaged area without cerebral infarction area
- infarction size (stroke animal model, compared to the group not administered a stroke drug, dose not stated): decrease
